Reference: patent US8933106B2, “2-(4-substituted phenylamino) polysubstituted pyridine compounds as inhibitors of non-nucleoside HIV reverse transcriptase, preparation methods and uses thereof” (Institute of Pharmacology and Toxicology Academy of …, priority 2008, dated 2015)
In brackets after ≈: the same amount, converted by molar mass.

Tests used:
Assay type in all cases: cell-based
[1] = Cytotoxicity test of the compound (MT-2 cells, XTT); settings: human, 4th day
Protocol: Please refer to the document (Jiang, S., et al. Antimicrob. Agents Chemother. 2004, 48, 4349-4359). In a 96-pore cell culture plate, 50 μl of different concentrations of compound solutions were respectively mixed with equal-volume of PBS, and incubated at 37° C. for 30 min, and then 100 μl MT-2 (or H9) cells (1×10^5/mL, RPIM 1640 culture medium containing 10% serum) was added, and mixed homogenously, followed by incubation at 37° C. overnight. On the second day, 150 μl of the supernatant was sucked out, and equal-volume of fresh culture medium was replenished, followed by further incubation at 37° C. for 3 days. On the 4th day, 50 μl of a XTT solution (1 mg/mL) containing PMS as freshly prepared was added. After 4 h, OD at 450 nm was tested. The 50% cytotoxicity concentration (CC50) of the compound was calculated using CalcuSyn software.

[2] = Toxicity in uninfected H9 cells; settings: human, uninfected H9 lymphocytes, no virus
Protocol: Please refer to the document (J. Med. Chem. 2004, 47, 756-760). Lymphocytes H9 were cultivated in culture medium 1640, under the conditions of 5% CO2, 37° C. The test compound was initially dissolved in DMSO, and then diluted with culture medium to conventional screening concentrations: 100, 20, 4, 0.8 μg/mL. The cultivated H9 cells were divided into two portions, one of which was infected with HIV virus (IIIB) (m.i.o. 0.1-0.01 infectious Units/cell), and used for the determination of activity. Another portion of the cells, in which no virus, but merely culture medium was added, was used for the determination of toxicity. After having been cultivated under completely the same conditions (37° C., 5% CO2) for 4 h, the two portions of cells were washed with fresh culture medium for 3 times, and then respectively added to different concentrations of test samples as formulated or to blank culture medium (the latter is positive infection control or negative drug control), while using AZT as positive drug control. […] On the 4th day, the cell membranes of the cells infected with virus were firstly removed, and the cytosol was tested by using P24 antigen ELISA assay to determine the activity of the samples, which was expressed as EC50. […] The portion of cells in which no virus was added was tested by using cytometry to determine the toxicity of the samples, which was expressed as CC50. […]

[3] = tested on: HIV virus (IIIB); assay: Anti-HIV activity test (H9 cell model), P24 antigen ELISA; settings: for SI(CC50/EC50): H9 cells, ratio of toxicity CC50 value to activity EC50 value; for EC50: Human immunodeficiency virus 1, 96 h, H9 cells infected with HIV (IIIB), 4 days, P24 antigen
Protocol: Please refer to the document (J. Med. Chem. 2004, 47, 756-760). Lymphocytes H9 were cultivated in culture medium 1640, under the conditions of 5% CO2, 37° C. The test compound was initially dissolved in DMSO, and then diluted with culture medium to conventional screening concentrations: 100, 20, 4, 0.8 μg/mL. The cultivated H9 cells were divided into two portions, one of which was infected with HIV virus (IIIB) (m.i.o. 0.1-0.01 infectious Units/cell), and used for the determination of activity. Another portion of the cells, in which no virus, but merely culture medium was added, was used for the determination of toxicity. After having been cultivated under completely the same conditions (37° C., 5% CO2) for 4 h, the two portions of cells were washed with fresh culture medium for 3 times, and then respectively added to different concentrations of test samples as formulated or to blank culture medium (the latter is positive infection control or negative drug control), while using AZT as positive drug control. All of these cells were cultivated under the conditions of 5% CO2, 37° C. for 4 days. On the 4th day, the cell membranes of the cells infected with virus were firstly removed, and the cytosol was tested by using P24 antigen ELISA assay to determine the activity of the samples, which was expressed as EC50. EC50 meant an effective concentration at which 50% of virus replication was inhibited. The portion of cells in which no virus was added was tested by using cytometry to determine the toxicity of the samples, which was expressed as CC50. CC50 meant a concentration at which 50% of living cells were killed.

[4] = tested on: HIV-1IIIB virus strain; assay: Anti-HIV activity test (MT-2 cell model), p24 antigen ELISA; settings: MT-2 cells; for EC50: Human immunodeficiency virus 1, MT2, HIV-1IIIB, 4th day, p24 antigen; for SI(CC50/EC50): ratio of toxicity CC50 value to activity EC50 value
Protocol: Please refer to the document (Jiang, S., et al. Antimicrob. Agents Chemother. 2004, 48, 4349-4359). In a 96-pore cell culture plate, 50 μl of different concentrations of compound solutions were respectively mixed with equal-volume of HIV-1IIIB virus strain (100 TCID50), and incubated at 37° C. for 30 min, and then 100 μl MT-2 cell (1×10^5/mL, RPIM 1640 culture medium containing 10% serum) was added, and mixed homogenously, followed by incubation at 37° C. overnight. On the second day, 150 μl of the supernatant was sucked out, and equal-volume of fresh culture medium was replenished, followed by further incubation at 37° C. for 3 days. On the 4th day, cytopathic effect (CPE) was recorded. Thereafter, 100 μl of culture supernatant was sucked out, virus particles were split using 5% Triton X-100, and p24 antigen therein was tested by using ELISA assay. Briefly, a ELISA plate was coated with HIVIG (2 μg/mL), and blocked with 1% fat-free milk, then a virus lysate was added therein, followed by incubation at 37° C. for 60 min. After fully washing the plate, anti-p24 monoclonal antibody-183-12H-5C, biotin-labeled goat antimouse antibody and […]-labeled horseradish peroxidase were added in sequence. Then, after developing with TMB, OD was tested at 450 nm. The 50% effective concentration (EC50) of the compound was calculated using CalcuSyn software.

| SMILES | CC50 at 4 days [1] [µg/mL] | CC50 at 4 days [2] [µg/mL] | SI(CC50/EC50) [3] | EC50 [3] [µg/mL] | EC50 [4] [µg/mL] | SI(CC50/EC50) [4] |
| --- | --- | --- | --- | --- | --- | --- |
| Cc1cc(Br)cc(C)c1Oc1ccc([N+](=O)[O-])c(Nc2ccc(C#N)cc2)n1 [Compound I-1, 2-(4-cyanophenylamino)-6-(2,6-dimethyl-4-bromophenoxy)-3-nitropyridine] | 32.2 (≈ 73.4 µM) | 19.4 (≈ 44.1 µM) | >774 | < 0.025 | 0.52 (≈ 1.18 µM) | 62 |
| Cc1cc(C#N)cc(C)c1Oc1ccc([N+](=O)[O-])c(Nc2ccc(C#N)cc2)n1 [Compound I-2, 2-(4-cyanophenylamino)-6-(2,6-dimethyl-4-cyanophenoxy)-3-nitropyridine] | 19.3 (≈ 50.1 µM) | > 25 | >10,000 | 0.0025 (≈ 0.00649 µM) | 0.052 (≈ 0.135 µM) | 371 |
